Data as given in US12030879B2, “Sulfonyl acetamides as NLRP3 inhibitors” (Inflazome Limited, priority 2018, dated 2024).

Target: T1, NLRP3 (Homo sapiens, UniProt Q96P20)
T1 construct: Seed THP-1 cells (25,000 cells/well) containing 1.0 μg/ml LPS in 40 μl of RPMI medium; host or cells: THP-1 cells
Test: THP-1 cells pyroptosis assay
Format: cell-based
Conditions: LPS 1 μg/ml, compound 3 hrs, nigericin 5 μM 1 hr, resazurin readout
Summary of the method: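 LPS-primed (1 μg/ml) THP-1 cells in serum-free RPMI were treated 3 h with compound (8-point half-log, top 10 μM; 0.1% DMSO), then with 5 μM nigericin for 1 h at 37°C. Viability was read by 100 μM resazurin (ex 560/em 590 nm) after 1–2 h. IC50 came from 4-parameter nonlinear regression.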

T1 sequence (Q96P20 whole entry): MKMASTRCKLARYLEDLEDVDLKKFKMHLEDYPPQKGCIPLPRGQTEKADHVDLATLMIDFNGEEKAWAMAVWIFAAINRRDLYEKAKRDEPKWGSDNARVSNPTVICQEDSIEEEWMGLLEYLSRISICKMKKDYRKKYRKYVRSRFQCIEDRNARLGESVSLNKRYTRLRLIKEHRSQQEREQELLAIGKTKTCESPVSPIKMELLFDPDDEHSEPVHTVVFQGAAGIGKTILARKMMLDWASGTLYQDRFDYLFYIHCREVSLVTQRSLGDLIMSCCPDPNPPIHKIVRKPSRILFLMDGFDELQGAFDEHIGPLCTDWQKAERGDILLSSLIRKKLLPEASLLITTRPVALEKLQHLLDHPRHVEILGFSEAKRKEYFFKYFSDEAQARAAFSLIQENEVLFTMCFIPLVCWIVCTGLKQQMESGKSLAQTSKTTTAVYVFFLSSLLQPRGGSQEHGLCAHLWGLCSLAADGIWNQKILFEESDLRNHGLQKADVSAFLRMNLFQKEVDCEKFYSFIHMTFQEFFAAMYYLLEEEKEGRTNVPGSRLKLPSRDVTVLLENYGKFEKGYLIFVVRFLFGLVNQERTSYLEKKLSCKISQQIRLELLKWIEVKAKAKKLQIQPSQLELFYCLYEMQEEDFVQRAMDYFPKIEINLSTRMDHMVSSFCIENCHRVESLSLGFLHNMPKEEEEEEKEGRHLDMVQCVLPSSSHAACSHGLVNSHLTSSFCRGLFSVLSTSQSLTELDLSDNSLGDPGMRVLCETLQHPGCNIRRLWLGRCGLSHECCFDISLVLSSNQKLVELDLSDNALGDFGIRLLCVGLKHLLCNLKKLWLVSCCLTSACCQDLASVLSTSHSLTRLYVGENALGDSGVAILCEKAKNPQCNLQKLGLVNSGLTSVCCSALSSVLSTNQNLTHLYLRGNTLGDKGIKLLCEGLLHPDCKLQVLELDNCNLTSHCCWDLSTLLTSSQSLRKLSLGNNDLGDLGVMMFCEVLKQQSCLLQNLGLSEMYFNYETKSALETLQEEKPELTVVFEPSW

Row | SMILES | IC50 [µM]
1 | COc1cc(-c2cc(F)cc(C(C)C)c2CC(=O)NS(=O)(=O)c2c(F)cc(C)cc2F)ccn1 [Example 113] | ≤ 1
2 | COc1cc(-c2cc(F)cc(C(C)C)c2CC(=O)NS(=O)(=O)CC2(C#N)CCCCC2)ccn1 [Example 114] | ≤ 1
3 | COc1cc(-c2cc(F)cc(C(C)C)c2CC(=O)NS(=O)(=O)c2cccc3ccoc23)ccn1 [Example 115] | ≤ 1
4 | COc1cc(-c2cc(F)cc(C(C)C)c2CC(=O)NS(=O)(=O)c2cc3ccccc3o2)ccn1 [Example 116] | ≤ 1
5 | CCc1cccc(S(=O)(=O)NC(=O)Cc2c(-c3ccnc(OC)c3)cc(F)cc2C(C)C)c1 [Example 117] | ≤ 0.5
6 | COc1cc(-c2cc(F)cc(C(C)C)c2CC(=O)NS(=O)(=O)c2ccc3c(c2)CCCO3)ccn1 [Example 118] | ≤ 1
7 | COc1cccc(S(=O)(=O)NC(=O)Cc2c(-c3ccnc(OC)c3)cc(F)cc2C(C)C)c1 [Example 119] | ≤ 1
8 | COc1cc(-c2cc(F)cc(C(C)C)c2CC(=O)NS(=O)(=O)c2ccc(C)cc2F)ccn1 [Example 120] | ≤ 1
9 | COc1cc(-c2cc(F)cc(C(C)C)c2CC(=O)NS(=O)(=O)c2cc(C)c(C)s2)ccn1 [Example 121] | ≤ 0.5
10 | COc1cc(-c2cc(F)cc(C(C)C)c2CC(=O)NS(=O)(=O)c2ccc(C)c(C)c2)ccn1 [Example 122] | ≤ 0.5
11 | COc1cc(-c2cc(F)cc(C(C)C)c2CC(=O)NS(=O)(=O)c2ccc3c(c2)CCC3)ccn1 [Example 123] | ≤ 0.5
12 | COc1cc(-c2cc(F)cc(C(C)C)c2CC(=O)NS(=O)(=O)c2ccc3c(c2)COC3)ccn1 [Example 124] | ≤ 0.5
13 | COc1cc(-c2cc(F)cc(C(C)C)c2CC(=O)NS(=O)(=O)c2ccc(C)c(F)c2)ccn1 [Example 125] | ≤ 0.5
14 | COc1cc(-c2cc(F)cc(C(C)C)c2CC(=O)NS(=O)(=O)c2ccc3ccccc3c2)ccn1 [Example 126] | ≤ 0.5
15 | COc1cc(-c2cc(F)cc(C(C)C)c2CC(=O)NS(=O)(=O)c2ccc(-c3cnco3)s2)ccn1 [Example 127] | ≤ 5
16 | COc1cc(-c2cc(F)cc(C(C)C)c2CC(=O)NS(=O)(=O)c2cc(Br)ccc2C)ccn1 [Example 128] | ≤ 1
17 | COc1cc(-c2cc(F)cc(C(C)C)c2CC(=O)NS(=O)(=O)c2ccc(Br)cc2C)ccn1 [Example 129] | ≤ 1
18 | COc1cc(-c2cc(F)cc(C(C)C)c2CC(=O)NS(=O)(=O)c2ccc(CCNC(C)=O)cc2)ccn1 [Example 130] | ≤ 5
19 | COc1cc(-c2cc(F)cc(C(C)C)c2CC(=O)NS(=O)(=O)c2nn(C)/c(=N\C(C)=O)s2)ccn1 [Example 131] | ≤ 5
20 | COc1cc(-c2cc(F)cc(C(C)C)c2CC(=O)NS(=O)(=O)c2ccc(/C(C)=N\O)cc2)ccn1 [Example 132] | ≤ 5
21 | COc1cc(-c2cc(F)cc(C(C)C)c2CC(=O)NS(=O)(=O)c2cccc(CNC(C)=O)c2)ccn1 [Example 133] | ≤ 5
22 | COc1cc(-c2cc(F)cc(C(C)C)c2CC(=O)NS(=O)(=O)c2ccc(C(C)(C)F)cc2C)ccn1 [Example 134] | ≤ 0.5
23 | COc1cc(-c2cc(F)cc(C(C)C)c2CC(=O)NS(=O)(=O)c2ccc(Cl)c(F)c2)ccn1 [Example 135] | ≤ 5
24 | COc1cc(-c2cc(F)cc(C(C)C)c2CC(=O)NS(=O)(=O)c2ccc(Cl)cc2C)ccn1 [Example 136] | ≤ 1

Row | SMILES | IC50 [µM]
25 | COc1cc(-c2cc(F)cc(C(C)C)c2CC(=O)NS(=O)(=O)c2ccc(C(C)(C)O)cn2)ccn1 [Example 137] | ≤ 10
26 | COc1cc(-c2cc(F)cc(C(C)C)c2CC(=O)NS(=O)(=O)c2nnc(NC(C)=O)s2)ccn1 [Example 138] | ≤ 10
27 | COc1cc(-c2cc(F)cc(C(C)C)c2CC(=O)NS(=O)(=O)c2cc(F)c(Br)cc2C)ccn1 [Example 139] | ≤ 0.5
28 | COc1cc(-c2cc(F)cc(C(C)C)c2CC(=O)NS(=O)(=O)c2ccc(Br)cc2C(F)(F)F)ccn1 [Example 140] | ≤ 5
29 | COc1cc(-c2cc(F)cc(C(C)C)c2CC(=O)NS(=O)(=O)c2ccc(Cl)c(C(F)(F)F)c2)ccn1 [Example 141] | ≤ 1
30 | CC(C)c1cc(F)cc(-c2cccnc2)c1CC(=O)NS(=O)(=O)c1cnc(C(C)(C)O)s1 [Example 142] | ≤ 1
31 | CC(C)c1cc(F)cc(-c2cccnc2)c1CC(=O)NS(=O)(=O)c1ncc(C(C)(C)O)s1 [Example 143] | ≤ 1
32 | COc1cc(-c2cc(F)cc(C(C)C)c2CC(=O)NS(=O)(=O)c2cc(C(C)(C)OC)cs2)ccn1 [Example 144] | ≤ 0.5
33 | COc1ccc(-c2cc(F)cc(C(C)C)c2CC(=O)NS(=O)(=O)c2cc(C(C)(C)O)cs2)cn1 [Example 145] | ≤ 0.5
34 | COc1cc(-c2cc(F)cc(C(C)C)c2CC(=O)NS(=O)(=O)c2c(C)cc(N(C)C)cc2C)ccn1 [Example 146] | ≤ 10
35 | COc1cc(-c2c(CC(=O)NS(=O)(=O)c3cc(C(C)(C)O)cs3)c(C(C)C)nn2C)ccn1 [Example 147] | ≤ 5
36 | COc1cncc(-c2cc(F)cc(C(C)C)c2CC(=O)NS(=O)(=O)c2cc(C(C)(C)O)cs2)c1 [Example 148] | ≤ 5
37 | COc1cc(-c2cc(F)cc(C(C)C)c2CC(=O)NS(=O)(=O)c2cc(C(C)(C)O)c(F)cc2F)ccn1 [Example 149] | ≤ 0.5
38 | C=C(C)c1csc(S(=O)(=O)NC(=O)Cc2c(-c3ccnc(OC)c3)cc(F)cc2C(C)C)c1 [Example 150] | ≤ 0.5
39 | COc1cc(-c2cc(F)cc(C(C)C)c2CC(=O)NS(=O)(=O)c2ccc(C3CC3)cc2C)ccn1 [Example 151] | ≤ 0.5
40 | COc1cc(-c2cc(F)cc(C(C)C)c2CC(=O)NS(=O)(=O)c2c(C)nn(C(C)C)c2C)ccn1 [Example 152] | ≤ 5
41 | COc1cc(-c2cc(F)cc(C(C)C)c2CC(=O)NS(=O)(=O)c2cc(N(C)C)ccc2C)ccn1 [Example 153] | ≤ 5
42 | C=C(C)c1csc(S(=O)(=O)NC(=O)Cc2c(C(C)C)nn(C)c2-c2ccnc(OC)c2)c1 [Example 154] | ≤ 0.5
43 | CNc1cc(C)c(S(=O)(=O)NC(=O)Cc2c(-c3ccnc(OC)c3)cc(F)cc2C(C)C)cc1C [Example 155] | ≤ 5
44 | COc1cc(-c2cc(F)cc(C(C)C)c2CC(=O)NS(=O)(=O)c2cc(C(C)C)c(F)cc2F)ccn1 [Example 156] | ≤ 0.5
45 | COc1cc(-c2cc(F)cc(C(C)C)c2CC(=O)NS(=O)(=O)c2ccc(C(C)C)cc2C)ccn1 [Example 157] | ≤ 0.5
46 | CC(C)c1cc(F)cc(-c2ccnc(O)c2)c1CC(=O)NS(=O)(=O)c1cc(C(C)(C)O)cs1 [Example 158] | ≤ 5
47 | COc1cc(-c2cc(F)cc(C(C)C)c2CC(=O)NS(=O)(=O)c2cc(C(C)(C)O)c(C)s2)ccn1 [Example 159] | ≤ 0.5
48 | COc1cc(-c2cc(F)cc(C(C)C)c2CC(=O)NS(=O)(=O)c2cc(C(C)(C)O)nn2C)ccn1 [Example 160] | ≤ 5

Row | SMILES | IC50 [µM]
49 | COc1cc(-c2cc(F)cc(C(C)C)c2CC(=O)NS(=O)(=O)c2c(Cl)cc(N(C)C)cc2Cl)ccn1 [Example 161] | ≤ 5
50 | COc1cc(-c2cc(F)cc(C(C)C)c2CC(=O)NS(=O)(=O)c2cnc(N(C)C)cc2C)ccn1 [Example 162] | ≤ 5
51 | C=C(C)c1csc(S(=O)(=O)NC(=O)Cc2c(-c3ccnc(OC)c3)nn(C)c2C(C)C)c1 [Example 163] | ≤ 10
52 | C=C(C)c1ccc(S(=O)(=O)NC(=O)Cc2c(-c3ccnc(OC)c3)cc(F)cc2C(C)C)c(C)c1 [Example 164] | ≤ 0.5
53 | C=C(C)c1cc(S(=O)(=O)NC(=O)Cc2c(-c3ccnc(OC)c3)cc(F)cc2C(C)C)c(F)cc1F [Example 165] | ≤ 0.5
54 | COc1cc(-c2cc(F)cc(C(C)C)c2CC(=O)NS(=O)(=O)c2cc(Br)c(F)cc2F)ccn1 [Example 166] | ≤ 0.5
55 | COc1cc(-c2cc(F)cc(C(C)C)c2CC(=O)NS(=O)(=O)c2cc(C(C)(C)O)ccc2C)ccn1 [Example 167] | ≤ 5
56 | COc1cc(-c2cc(F)cc(C(C)C)c2CC(=O)NS(=O)(=O)c2c(C)nn(CC(F)(F)F)c2C)ccn1 [Example 168] | ≤ 5
57 | COc1cc(-c2cc(F)cc(C(C)C)c2CC(=O)NS(=O)(=O)c2cn(CC(F)F)nc2C)ccn1 [Example 169] | ≤ 5
58 | COc1cc(-c2cc(F)cc(C(C)C)c2CC(=O)NS(=O)(=O)c2cc(C(C)(C)O)ccn2)ccn1 [Example 170] | ≤ 0.5
59 | COc1cc(-c2cc(F)cc(C(C)C)c2CC(=O)NS(=O)(=O)c2ccc(C(C)(C)O)nc2)ccn1 [Example 171] | ≤ 5
60 | COc1cc(-c2cc(F)cc(C(C)C)c2CC(=O)NS(=O)(=O)c2c(C)nn(CC(C)C)c2C)ccn1 [Example 172] | ≤ 5
61 | COc1cc(-c2cc(F)cc(C(C)C)c2CC(=O)NS(=O)(=O)c2cn(C(C)C)nc2C)ccn1 [Example 173] | ≤ 0.5
62 | COc1cc(-c2cc(F)cc(C(C)C)c2CC(=O)NS(=O)(=O)c2cc(C(=O)N(C)C)c(C)s2)ccn1 [Example 174] | ≤ 0.5
63 | COc1cc(-c2cc(F)cc(C(C)C)c2CC(=O)NS(=O)(=O)c2c(C)nn(CC(F)F)c2C)ccn1 [Example 175] | ≤ 5
64 | COC(=O)c1cc(S(=O)(=O)NC(=O)Cc2c(-c3ccnc(OC)c3)cc(F)cc2C(C)C)sc1C [Example 176] | ≤ 0.5
65 | COc1cc(-c2cc(F)cc(C(C)C)c2CC(=O)NS(=O)(=O)c2ccc(CCN(C)C)cc2)ccn1 [Example 177] | ≤ 5
66 | COc1cc(-c2cc(F)cc(C(C)C)c2CC(=O)NS(=O)(=O)c2cc(Br)c(Cl)cc2C)ccn1 [Example 178] | ≤ 1
67 | CCC(C)(O)c1ccc(S(=O)(=O)NC(=O)Cc2c(-c3ccnc(OC)c3)cc(F)cc2C(C)C)cc1F (stereo not shown) [Example 179] | ≤ 0.5
68 | COc1cc(-c2cc(F)cc(C(C)C)c2CC(=O)NS(=O)(=O)c2cccc(CN(C)C)c2)ccn1 [Example 180] | ≤ 5
69 | COc1cc(-c2cc(F)cc(C(C)C)c2CC(=O)NS(=O)(=O)c2ccnc(C(C)(C)O)c2)ccn1 [Example 181] | ≤ 0.5
70 | CNC(=O)c1ccc(S(=O)(=O)NC(=O)Cc2c(-c3ccnc(OC)c3)cc(F)cc2C(C)C)c(C)c1 [Example 182] | ≤ 10
